The IC50 is the concentration that inhibits the measured activity by half. A lower IC50 goes with greater potency in that assay. The term LD50 denotes the dose expected to kill half of the subjects tested. The ED50 is the dose at which the effect has come halfway, by size or by number of responders. A higher ED50 goes with weaker potency.

In data set [1] the test system is central activities of diazepam. As to the kind of experiment: antagonism of the central activities of diazepam (sleep/waking behaviour) in male albino rats. Format: in vivo. From the text: Male albino rats (body weight about 165 g) are used for this test.
For data set [2], the target named is specific benzodiazepine receptors in the cerebral cortex. As to the kind of experiment: inhibition of the binding of tritiated diazepam at the specific benzodiazepine receptors in the cerebral cortex. The method, then: The affinity of compounds of formula I to the central benzodiazepine receptors was determined according to the method described in Life Science 20, 2101-2110 (1977) and Science 198, 849-851 (1977). According to this method, the inhibition of the binding of tritiated diazepam at the specific benzodiazepine receptors in the cerebral cortex by test substances is ascertained. The IC50 ("50% inhibiting concentration") is that concentration of the test substance which brings about a 50 percent inhibition of the specific binding of the tritiated diazepam at the specific benzodiazepine receptors in the cerebral cortex.
(§1) In the following Table there are compiled the results which have been obtained with representative compounds of formula I. The ED50 value is given for each compound listed in the Table. The ED50 is the amount of the test compound in mg/kg (p.o.) which counteracts in 50% of the animals the diazepam effect in the foregoing test. Moreover, the Table contains the IC50 value (defined hereinbefore) for all test compounds listed therein as well as details concerning the acute toxicity of certain compounds (LD50 in mg/kg following single oral administration to mice).

Data set [3] in a line: acute toxicity following single oral administration to mice. As to conditions: mouse, in vivo.
Text: as §1

The subject of data set [4] is diazepam effect in the pentetrazole test. The experiment in a line: pentetrazole test: antagonism of the diazepam effect in mice. The following applies: for ED50: Mus musculus, po, mice, diazepam 5 mg/kg i.p. 1 hour and test compound 15 min before pentetrazole 120 mg/kg i.p. Format: in vivo. The method, then: This property was used as a basis for the test described hereinafter which permits the determination of compounds which are capable of antagonising the central properties of 1,4-benzodiazepines which have tranquillising activity.
The antagonistic activity of the compounds tested, i.e. their ability to counteract the activity of diazepam in the pentetrazole test, is determined by counting the mice which suffer spasmodic seizures in this test.
as §1

The subject of data set [5] is central activities of flunitrazepam. The experiment in a line: EEG of the dorsal hippocampus (theta rhythm) in conscious, curarised rats; antagonism of flunitrazepam. Format: in vivo. The method, then:
Four tests were carried out on conscious, curarised, artifically respirated rats. The bipolar-derived EEG of the dorsal hippocampus served as the measured variable. 10 minutes after the beginning of the derivation flunitrazepam was administered intravenously in a dosage of 0.1 mg/kg. The test substance was likewise administered intravenously in a dosage of 1 mg/kg to one animal 10 minutes and to three animals 30 minutes after the administration of flunitrazepam. The EEGs obtained were analysed continuously in the frequency range according to the rules of the Fourier transformation, whereby each of the computed spectra related to 1 minute.
The normal EEG from the hippocampus of conscious, curarised rats is characterised by a stable theta rhythm of 3.75-4.25 Hertz which remains unchanged at least 3 hours after the beginning of the artificial respiration. Flunitrazepam, in the given dosage, completely suppresses this theta rhythm for about 15 minutes. Thereafter, there appears a rhythm which is slowed down to 2.75-3.25 Hertz, which increases continuously and again attains the normal frequency of 4 Hertz 1 to 1.5 hours after the injection.

Another data set relates to Schistosoma mansoni. The experiment in a line: schistosomicidal activity in infected mice. Format: in vivo. As to conditions: Mouse; 750 mg/kg p.o. alone. As to the method: Mice and golden hamsters are infected subcutaneously with 60 cercaria of Schistosoma mansoni. Ca 42 days after the infection, they are treated orally with a single dosage of the compound to be tested. 5 Animals are used per test preparation and dosage. 10 Untreated animals are used as controls. The animals are killed and dissected 2 weeks (hamster) or 3 weeks (mice) after the treatment. Worm pairs in mesenteric veins, portal vein and liver are dissected-out, counted and the condition of the worms (living or dead) is registered. A schistosomicidal activity of a test preparation manifests itself in the appearance of dead worms in the vessels of the liver. Dead worms are never found in untreated control animals. The test is evaluated by calculating the percentage of dead worm pairs in the vessels of the liver in infected, treated animals.
The following representative compounds of formula I were tested in tests described earlier for possible detrimental effects on the schistosomicidal activity of (+)-5-(o-chlorophenyl)-1,3-dihydro-3-methyl-7-nitro-2H-1,4-benzodiazepin-2-one (compound S).

Where [6] appears, read: 20 mg/kg i.p., then after 30 min diazepam 5 mg/kg i.v.
[7] abbreviates: compounds of formula I with A = group (a).
Where [8] appears, read: thieno derivatives, A = group (b).

As for `CCOC(=O)c1ncn2c1CN(C)C(=O)c1ccccc1-2` [Example 16, ethyl 5,6-dihydro-5-methyl-6-oxo-4H-imidazo[1,5-a][1,4]benzodiazepine-3-carboxylate], in data set [1] (5 mg/kg i.v., 5 or 15 min after diazepam 5 mg/kg i.v. or 30 min after diazepam 10 mg/kg i.p.), the “waking of diazepam-treated animals” value was “the animals stand up immediately and move around”. Moreover, the “behaviour after test substance alone” value in data set [1] (20 mg/kg i.p.) was “the animals remain awake and show a normal behaviour”. In data set [1] (setting [6]), the “duration of waking phase” value is reported as “at least 30 minutes”; the “symptoms after subsequent diazepam” value is “in the first 2 minutes after the injection slight sedation and ataxia, but these symptoms rapidly disappear”. Besides, in data set [1] (rats, overall finding), the “antagonism of the central activities of diazepam” value is “antagonises the central activities of the known 1,4-benzodiazepine derivative diazepam”. The IC50 in data set [2] (setting [7]) was determined as 3000 nM. The compound further displayed an LD50 in data set [3] of more than 5000 mg/kg. In addition, it took a dose of 10.9 mg/kg to reach the 50% effect level in data set [4] (ED50).
Consider `CN1C(=O)CN=C(c2ccccc2)c2cc(Cl)ccc21` [diazepam, reference compound], for which, in data set [1] (diazepam 5 mg/kg i.v.), the “falling asleep / rousing reflex” value is on record as “fall asleep immediately, no longer show rousing reflex”; the “sleep in the lateral position, duration” value is given as “at least 60 minutes”; the “time to slowly wake up” value is “about 1.5 hours”. Further, in data set [1] (diazepam 10 mg/kg i.p.), the falling asleep entry was “fall asleep within a few minutes” and the sleep duration is 2 to 3 h. Besides, the “protection from spasmodic seizures in the pentetrazole test” value in data set [4] (diazepam 5 mg/kg i.p., more than 900 mice) is “protected all experimental animals from spasmodic seizures”.
In data set [2] (setting [7]), `CC(C)OC(=O)c1ncn2c1CN(C)C(=O)c1cc(F)ccc1-2` [Example 4, isopropyl 8-fluoro-5,6-dihydro-5-methyl-6-oxo-4H-imidazo [1,5-a][1,4]benzodiazepine-3-carboxylate] had an IC50 of 3900 nM. In addition, in data set [3], the LD50 was more than 5000 mg/kg. The compound further returned a 50% effective dose (ED50) in data set [4] of 6.6 mg/kg.
The matching figures for `COC(=O)c1ncn2c1[C@@H]1CCCN1C(=O)c1ccccc1-2` [Example 31, methyl (S)-11,12,13,13a-tetrahydro-9-oxo-9H-imidazo[1,5-a]pyrrolo[2,1-c][1,4]benzodiazepine-1-carboxylate]: 32000 nM, 2000 to 4000 mg/kg and 3.5 mg/kg.
In data set [2] (setting [7]), `CN1Cc2c(C#N)ncn2-c2ccccc2C1=O` [Example 18, 5,6-dihydro-5-methyl-6-oxo-4H-imidazo[1,5-a][1,4]benzodiazepine-3-carbonitrile] came in with an IC50 of 100000 nM. Also, in data set [3], the LD50 worked out at 1250 mg/kg. The 50% effect level in data set [4] (ED50) was put at a dose of 2.6 mg/kg.
The corresponding values for `CCOC(=O)c1ncn2c1[C@@H]1CCCN1C(=O)c1c(Cl)cccc1-2` [Example 14, ethyl (S)-8-chloro-11,12,13,13a-tetrahydro-9-oxo-9H-imidazo[1,5-a]pyrrolo[2,1-c][1,4]benzodiazepine-1-carboxylate] are 1700 nM, 750 to 1500 mg/kg and 1 mg/kg.
As to `CCOC(=O)c1ncn2c1[C@@H]1CCCN1C(=O)c1ccccc1-2` [Example 30, ethyl (S)-11,12,13,13a-tetrahydro-9-oxo-9H-imidazo[1,5-a]pyrrolo[2,1-c][1,4]benzodiazepine-1-carboxylate], the IC50 in data set [2] (setting [7]) came to 6400 nM. Besides, the LD50 in data set [3] was in the range of 1250 to 2500 mg/kg. For the same compound, in data set [5] (1 mg/kg i.v., 10 or 30 min after flunitrazepam), the “theta rhythm frequency after test substance” value turned out to be 4 Hertz. For the same compound, the “normalisation of theta rhythm” value in data set [5] (1 mg/kg i.v., 10 or 30 min after flunitrazepam 0.1 mg/kg i.v.) is “immediate, long-lasting normalisation of the described theta rhythm at 4 Hertz”. Further, the “effect on theta rhythm” value was “immediately brought about the rhythm suppressed by flunitrazepam, whereby this showed the normal frequency from the outset” in data set [5] (1 mg/kg i.v., 10 min after flunitrazepam) and “accelerated the already, but slowly, re-appearing rhythm immediately to its normal frequency of 4 Hertz” in data set [5] (1 mg/kg i.v., 30 min after flunitrazepam). Also, the “antagonism of the central activities of flunitrazepam” value in data set [5] (rats, overall finding) is “antagonises the central activities of the known 1,4-benzodiazepine derivative flunitrazepam”. In data set [4], this compound displayed an ED50 of 9.3 mg/kg.
`CCOC(=O)c1ncn2c1C1C=CCN1C(=O)c1c(F)cccc1-2` (stereo not shown) [Example 11, ethyl 8-fluoro-11,13a-dihydro-9-oxo-9H-imidazo[1,5-a]pyrrolo[2,1-c][1,4]benzodiazepine-1-carboxylate]: the IC50 in data set [2] (setting [7]) turned out to be 2100 nM. The same compound returned an LD50 in data set [3] of 500 to 1000 mg/kg. In data set [4], this compound had an ED50 of 1.8 mg/kg.
For `CCOC(=O)c1ncn2c1CN(C)C(=O)c1c(F)cccc1-2` [Example 10, ethyl 7-fluoro-5,6-dihydro-5-methyl-6-oxo-4H-imidazo[1,5-a][1,4]benzodiazepine-3-carboxylate], in data set [2] (setting [7]), the IC50 turned out to be 2000 nM. In data set [3], this compound registered an LD50 of more than 5000 mg/kg. In data set [4], this compound returned an ED50 of 2.1 mg/kg.
In data set [2] (setting [7]), `CCOC(=O)c1ncn2c1CN(C)C(=O)c1cc(F)ccc1-2` [Example 1, ethyl 8-fluoro-5,6-dihydro-5-methyl-6-oxo-4H-imidazo[1,5-a][1,4]benzodiazepine-3-carboxylate] gave an IC50 of 2500 nM. The compound also yielded an LD50 in data set [3] of more than 5000 mg/kg. For the same compound, the “Schistosomicidal activity in %” value in the data set with Schistosoma mansoni is on record as 0%. The compound also had an ED50 in data set [4] of 5.8 mg/kg.
Turning to `COC(=O)c1ncn2c1[C@@H]1CCCN1C(=O)c1sccc1-2` [Example 35, methyl (S)-10,11,12,12a-tetrahydro-8-oxo-8H-imidazo[5,1-c]pyrrolo[1,2-a]thieno[3,2-e][1,4]diazepine-1-carboxylate], in data set [2] (setting [8]), the IC50 worked out at 2.1 nM. The compound further showed an ED50 in data set [4] of 0.22 mg/kg.
In the case of `CN1C(=O)CN=C(c2ccccc2F)c2cc([N+](=O)[O-])ccc21` [flunitrazepam, reference compound], the “complete suppression of theta rhythm, duration” value in data set [5] (flunitrazepam 0.1 mg/kg i.v.) is recorded as “about 15 minutes”. In addition, the “frequency of slowed-down rhythm” value in data set [5] (flunitrazepam 0.1 mg/kg i.v., after suppression phase) was 2.75-3.25 Hertz. Moreover, the “time to again attain normal frequency of 4 Hertz” value in data set [5] (flunitrazepam 0.1 mg/kg i.v., after the injection) was 1 to 1.5 h.
Compound `CCOC(=O)c1ncn2c1[C@@H]1CCCN1C(=O)c1sccc1-2` [Example 34, ethyl (S)-10,11,12,12a-tetrahydro-8-oxo-8H-imidazo[5,1-c]pyrrolo[1,2-a]thieno[3,2-e][1,4]diazepine-1-carboxylate] came in with an IC50 in data set [2] (setting [8]) of 0.9 nM. The same compound gave an ED50 in data set [4] of 1.3 mg/kg.
The compound `COC(=O)c1ncn2c1CN(C)C(=O)c1ccccc1-2` [Example 24, methyl 5,6-dihydro-5-methyl-6-oxo-4H-imidazo[1,5-a][1,4]benzodiazepine-3-carboxylate] had an IC50 in data set [2] (setting [7]) of 9000 nM. The compound further had an ED50 in data set [4] of 13.5 mg/kg.
The matching figures for `CCOC(=O)c1ncn2c1CN(C)C(=O)c1c(C)cccc1-2` [Example 28, ethyl 5,6-dihydro-5,7-dimethyl-6-oxo-4H-imidazo[1,5-a][1,4]benzodiazepine-3-carboxylate]: 5000 nM and 7.1 mg/kg.

The values are drawn from patent US4316839A, “Imidazodiazepine derivatives” (Hoffman-La Roche Inc., priority 1979, dated 1982).
